This assay addresses human-KAT6A (MYST domain 507-778 aa) (Homo sapiens (Human), UniProt Q92794). Put plainly: KAT6A biochemical assay (TR-FRET). Particulars: TR-FRET; histone H4 peptide 200 nM, acetyl-CoA 600 nM; read-out: KAT6A IC50. From the text: TR-FRET based methods were used for assaying compounds of the present invention for KAT6A enzyme inhibitory activity. TR-FRET is a homogeneous proximity assay where Europium-labelled anti-acetyl lysine antibody binds to the acetylated substrate labelled with biotin, which in turn binds to streptavidin-labelled APC fluorescence acceptor. Europium can transfer energy to APC in the complex and the interaction of two dye-labelled binding partners is detected by the energy transfer between a donor and an acceptor dye and the subsequent light emission by the acceptor dye. KAT6A transfer an acetyl group from acetyl CoA to lysine amino acids of histones/target proteins. […] The selected compound of the present invention and enzyme are incubated for 30 min on plate shaker at 300 rpm at 25° C. Next, 5 μL of substrate mix containing histone H4 peptide and acetyl-CoA in assay buffer is added to the plate. The final concentrations of H4 peptide and acetyl-CoA are 200 nM and 600 nM, respectively. Following 60 min reaction at 25° C. on plate shaker at 300 rpm, 5 μL of detection mix containing Europium-labelled anti-acetyl antibody and streptavidin-APC is added to the reaction wells. The plate is further incubated at 25° C. on shaker at 300 rpm and is read in TR-FRET mode (Ex:340 nm; Em: 615 nm and 665 nm) on a plate reader to achieve ˜5-7-fold activity. The percent inhibition was calculated from the ratio of the fluorescence (FL) intensities [(F665/F615)×10000) using the formula […]. IC50 values of the compounds were determined by fitting the dose-response data to sigmoidal curve fitting equation using Graph pad prism software V9.

Chain of human-KAT6A (MYST domain 507-778 aa) (Q92794 507-778): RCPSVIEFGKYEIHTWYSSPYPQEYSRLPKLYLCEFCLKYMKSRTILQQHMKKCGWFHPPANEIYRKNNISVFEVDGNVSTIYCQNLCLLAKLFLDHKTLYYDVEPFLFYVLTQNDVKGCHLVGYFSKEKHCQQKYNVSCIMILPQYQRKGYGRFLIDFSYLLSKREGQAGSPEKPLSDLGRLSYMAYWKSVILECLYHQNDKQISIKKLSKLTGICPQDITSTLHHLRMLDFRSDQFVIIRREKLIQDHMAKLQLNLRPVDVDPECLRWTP

Consider `COc1cc(C(=O)NS(=O)(=O)c2cccc(O)c2)ccc1Cn1cccn1` [Compound 23, 4-((1H-pyrazol-1-yl)methyl)-N-((3-hydroxyphenyl)sulfonyl)-3-methoxybenzamide], for which the IC50 is 32 nM.
As for `COc1cc(C(=O)NS(=O)(=O)c2cc(Br)ccc2OC)ccc1Cn1cccn1` [Compound 24, 4-((1H-pyrazol-1-yl)methyl)-N-((5-bromo-2-methoxyphenyl)sulfonyl)-3-methoxybenzamide], the 50% inhibitory concentration (IC50) came to 12 nM.
With `COc1ccc(C(C)(C)C)cc1S(=O)(=O)NC(=O)c1ccc(Cn2cccn2)c(C(F)(F)F)c1` [Compound 25, 4-((1H-pyrazol-1-yl)methyl)-N-((5-(tert-butyl)-2-methoxyphenyl)sulfonyl)-3-(trifluoromethyl)benzamide] the figure was 10 nM; with `COc1cc(C(=O)NS(=O)(=O)c2ccccc2OC)ccc1Cn1cccn1` [Compound 26, N-(2-methoxyphenyl)sulfonyl-3-methoxy-4-(pyrazol-1-ylmethyl)benzamide], 25 nM; with `COc1cc(C(=O)NS(=O)(=O)c2cc3c(cc2OC)CCC3)ccc1Cn1cccn1` [Compound 27, 4-((1H-pyrazol-1-yl)methyl)-3-methoxy-N-((6-methoxy-2,3-dihydro-1H-inden-5-yl)sulfonyl)benzamide], 12 nM.
With `COc1cccc(OC)c1S(=O)(=O)NC(=O)c1ccc(Cn2cccn2)c(C2CC2)c1` [Compound 28, 4-((1H-pyrazol-1-yl)methyl)-3-cyclopropyl-N-((2,6-dimethoxyphenyl)sulfonyl)benzamide] the figure was 19 nM; with `COc1cc(C(=O)NS(=O)(=O)c2cc(C3CC3)ccc2OC)ccc1Cn1cccn1` [Compound 29, 4-((1H-pyrazol-1-yl)methyl)-N-((5-cyclopropyl-2-methoxyphenyl)sulfonyl)-3-methoxybenzamide], 10 nM; with `CCc1ccc(OC)c(S(=O)(=O)NC(=O)c2ccc(Cn3cccn3)c(OC)c2)c1` [Compound 30, 4-((1H-pyrazol-1-yl)methyl)-N-((5-ethyl-2-methoxyphenyl)sulfonyl)-3-methoxybenzamide], 11 nM.
The same measure for `COc1cc(C(=O)NS(=O)(=O)c2ccc(C(F)(F)F)cc2OC)ccc1Cn1cccn1` [Compound 31, 4-((1H-pyrazol-1-yl)methyl)-3-methoxy-N-((2-methoxy-4-(trifluoromethyl)phenyl)sulfonyl)benzamide]: 44 nM; for `COc1cc(C(=O)NS(=O)(=O)c2cc(C(F)(F)F)ccc2OC)ccc1Cn1cccn1` [Compound 32, 4-((1H-pyrazol-1-yl)methyl)-3-methoxy-N-((2-methoxy-5-(trifluoromethyl)phenyl)sulfonyl)benzamide]: 16 nM; for `COc1cccc(OC)c1S(=O)(=O)NC(=O)c1ccc(Cn2cccn2)c(OC(F)(F)F)c1` [Compound 33, 4-((1H-pyrazol-1-yl)methyl)-N-((2,6-dimethoxyphenyl)sulfonyl)-3-(trifluoromethoxy)benzamide]: 10 nM.
Regarding `COc1cccc(OC)c1S(=O)(=O)NC(=O)c1ccc(Cn2cccn2)c(C)c1` [Compound 34, 4-((1H-pyrazol-1-yl)methyl)-N-((2,6-dimethoxyphenyl)sulfonyl)-3-methylbenzamide], the IC50 worked out at 36 nM.
In the case of `COc1cccc(OC)c1S(=O)(=O)NC(=O)c1ccc(Cn2cccn2)c(C(F)(F)F)c1` [Compound 35], the IC50 is 30 nM.
With `COc1cc(C(=O)NS(=O)(=O)c2c(OC)cccc2-n2cccn2)ccc1Cn1cccn1` [Compound 36, 4-((1H-pyrazol-1-yl)methyl)-3-methoxy-N-((2-methoxy-6-(1H-pyrazol-1-yl)phenyl)sulfonyl)benzamide] the figure was 198 nM; with `COc1cccc(OC)c1S(=O)(=O)NC(=O)c1ccc(Cn2cccn2)c(OC(F)F)c1` [Compound 37, 4-((1H-pyrazol-1-yl)methyl)-3-(difluoromethoxy)-N-((2,6-dimethoxyphenyl)sulfonyl)benzamide], 10 nM.

These data come from patent US20250136553A1, “ACYLSULFONAMIDE KAT6A INHIBITORS” (Olema Pharmaceuticals, Inc., priority 2023, published 2025).
